Activity calls are given as the source filed them. The rule behind the calls is not given here.

Experimental findings from ChEMBL document CHEMBL5608184, “Discovery and mechanistic insights into thieno[3,2-d]pyrimidine and heterocyclic fused pyrimidines inhibitors targeting tubulin for cancer therapy” (Eur J Med Chem, 2024) are described below.

One test has as its system SK-OV-3. Description: Antiproliferative activity against human SK-OV-3 cells incubated for 48 hrs by CCK8 assay. Format: functional, cell-based. The following applies: SK-OV-3, 48 h. On the technique in general: Tetrazolium dyes change colour on reduction, which living cells bring about.
The next test deals with A549. Description: cells. To be noted: Homo sapiens, A549, 48 h.
For the next test, the target named is Tubulin (Homo sapiens) (UniProt P68371+Q9H4B7+P0DPH7+P68366+Q13509+Q71U36+P04350+Q3ZCM7+P07437+P68363+Q9BQE3+Q6PEY2+Q13885+Q9BVA1+Q9BUF5). Description: Inhibition of tubulin polymerization in human SK-OV-3 assessed as disruption of microtubule organization at 2 nM incubated for 24 hrs by immunofluorescence based analysis. Format: cell-based.
A further test is filed under the species Sus scrofa. Description: Inhibition of porcine brain tubulin polymerization at 10 uM measured for 60 min by fluorescence based assay.
Another test deals with A2780. In words: Antiproliferative activity against human A2780 cells incubated for 48 hrs by CCK8 assay. To be noted: A2780, 48 h. Format: functional, cell-based.
The nature of test [1]: Antiproliferative activity against Paclitaxel-resistant human A2780 cells incubated for 48 hrs by CCK8 assay. Format: functional, cell-based. The following applies: Paclitaxel-resistant A2780, 48 h.
For another test, the system named is HCC827. In words: Antiproliferative activity against human HCC827 cells incubated for 48 hrs by CCK8 assay. Type of test: functional, cell-based. The following applies: HCC827, 48 h.

Description for A549: Antiproliferative activity against human A549 cells incubated for 48 hrs by CCK8 assay

`CC(=O)O[C@H]1C(=O)[C@@]2(C)[C@H]([C@H](OC(=O)c3ccccc3)[C@]3(O)C[C@H](OC(=O)[C@H](O)[C@@H](NC(=O)c4ccccc4)c4ccccc4)C(C)=C1C3(C)C)[C@]1(OC(C)=O)CO[C@@H]1C[C@@H]2O` [PACLITAXEL]: the IC50 (as a rule, the point on the concentration scale where inhibition reaches its midpoint) in the test on SK-OV-3 worked out at 1.19 nM; with A549 it was 3.12 nM; in the test with A2780, 1.31 nM; in test [1], 3820 nM; in the test with HCC827 it was 1.25 nM. Also, the inhibition result at Tubulin (Homo sapiens) and in the test filed under Sus scrofa was “inactive” in each case.
